The record followed here is publication PMC3991326, “Optimal Translational Termination Requires C4 Lysyl Hydroxylation of eRF1” (Molecular Cell, 2014).

The assay deals with T1, Jmjd4 (Homo sapiens, UniProt Q9H9V9).
T1 construct: recombinant from E. coli, Ni-NTA purified
T1 sequence (Q9H9V9 1-417): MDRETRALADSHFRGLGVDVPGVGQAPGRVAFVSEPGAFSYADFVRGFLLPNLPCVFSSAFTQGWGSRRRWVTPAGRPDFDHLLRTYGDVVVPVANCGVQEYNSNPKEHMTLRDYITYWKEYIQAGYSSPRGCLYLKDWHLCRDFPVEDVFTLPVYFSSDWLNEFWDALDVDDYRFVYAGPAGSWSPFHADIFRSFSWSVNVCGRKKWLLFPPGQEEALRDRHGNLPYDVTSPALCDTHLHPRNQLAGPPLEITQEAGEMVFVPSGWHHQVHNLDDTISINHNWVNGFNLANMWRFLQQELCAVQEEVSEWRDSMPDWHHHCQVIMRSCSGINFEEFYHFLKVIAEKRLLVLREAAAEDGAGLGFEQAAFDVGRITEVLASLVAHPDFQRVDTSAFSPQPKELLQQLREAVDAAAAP
The experiment in a line: in vitro hydroxylation of recombinant eRF1 K63. Type of assay: biochemical. The settings on record: eRF1 as prime substrate; Fe(II), 2OG; competitive with 2OG (stated for 2OG oxygenases in general).

`O=C(O)CNC(=O)C(=O)O` [NOG]: the “in vitro hydroxylation of recombinant eRF1 K63” value is recorded as “eRF1 K63 hydroxylation was significantly impaired by a 2OG competitive inhibitor (NOG, N-Oxalylglycine)”.
